A value given as a limit tells only on which side of the number the result lay.

In one assay the target is T1, Human GPR120 short form (Homo sapiens, UniProt Q5NUL3).
T1 construct: expressed in transfected cells
T1 sequence (Q5NUL3 1-361): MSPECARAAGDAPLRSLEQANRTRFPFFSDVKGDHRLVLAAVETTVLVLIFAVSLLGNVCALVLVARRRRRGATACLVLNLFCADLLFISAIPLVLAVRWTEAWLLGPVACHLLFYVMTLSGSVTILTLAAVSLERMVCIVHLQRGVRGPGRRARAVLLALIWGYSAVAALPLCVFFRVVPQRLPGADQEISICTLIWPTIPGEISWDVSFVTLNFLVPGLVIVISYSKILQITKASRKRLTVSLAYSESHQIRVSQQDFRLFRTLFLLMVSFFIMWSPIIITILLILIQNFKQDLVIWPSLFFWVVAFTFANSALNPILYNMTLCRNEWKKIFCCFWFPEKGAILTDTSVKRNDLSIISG
In words: Human GPR120 calcium flux assay, Procedure Calcium B (4200 cells/well). Format: cell-based. A digest of the protocol: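 Agonist EC50 came from a four-parameter fit of RFU (Fmax−Fmin) read over 300 s on FLIPR. Cells were HEK293 stably transfected with human GPR120 (NM_001195755.1) at 4200 per well, serum-starved 1 h and loaded with Fluo-4 NW dye with probenecid before ligand addition.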
For orientation: A change in cytosolic calcium serves as a functional read-out for many receptors and channels.

The target in the next assay is T2, human GPR40 (Homo sapiens, UniProt O14842).
T2 construct: expressed in transfected cells
Briefly: GPR40 calcium flux assay, human GPR40. It counts as cell-based. As to conditions: HEK293 cells stably expressing GPR40; table does not say human or rat. In short, it runs like this: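 Cells preincubated 1 h at 37° C. in HBSS, 20 mM HEPES, 0.1% BSA, then Fluo 8 calcium dye 30 min at 37° C. and 15 min at room temperature.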

T2 sequence (O14842 whole entry): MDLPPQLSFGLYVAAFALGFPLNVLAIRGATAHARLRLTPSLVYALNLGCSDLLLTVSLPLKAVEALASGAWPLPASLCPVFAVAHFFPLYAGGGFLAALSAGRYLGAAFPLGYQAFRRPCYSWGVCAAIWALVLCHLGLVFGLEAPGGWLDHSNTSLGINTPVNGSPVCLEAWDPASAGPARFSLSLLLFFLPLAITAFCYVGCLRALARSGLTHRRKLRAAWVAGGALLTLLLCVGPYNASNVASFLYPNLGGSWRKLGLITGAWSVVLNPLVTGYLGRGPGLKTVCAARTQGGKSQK

Take `Cc1c(CCC(=O)O)ccc(OCC2=C(C3=CCOCC3)CCC2)c1C` [Compound 239, 3-[4-[[2-(3,6-dihydro-2H-pyran-4-yl)cyclopenten-1-yl]methoxy]-2,3-dimethyl-phenyl]Propanoic Acid]: the EC50 (as a rule, the concentration at which the effect is half-maximal) was 403 nM on Human GPR120 short form and over 5000 nM on human GPR40.
For the molecule `O=C(O)CCc1ccc(OCC2=C(c3ccccc3Cl)CCC2)cc1C(F)(F)F` [Compound 313, 3-[4-[[2-(2-chlorophenyl)cyclopenten-1-yl]methoxy]-2-(trifluoromethyl)phenyl]Propanoic Acid], the EC50 turned out to be 855 nM on Human GPR120 short form and 191 nM on human GPR40.
On the same counts, the results for `Cc1ccc(C2=C(COc3ccc(CCC(=O)O)cc3)CCC2)c(C)c1` [Compound 245, 3-[4-[[2-(2,4-dimethylphenyl)cyclopenten-1-yl]methoxy]phenyl]Propanoic Acid] are 2000 nM and 1910 nM.
As for `Cc1c(CCC(=O)O)ccc(OCC2=C(C3CCCC3)CCC(F)(F)CC2)c1C` [Compound 618, 3-[4-[(2-cyclopentyl-5,5-difluoro-cyclohepten-1-yl)methoxy]-2,3-dimethyl-phenyl]Propanoic Acid], the figures for the EC50 on Human GPR120 short form and on human GPR40 were 188 nM and over 10000 nM, respectively.
Take `O=C(O)CCc1ccc(OCC2=C(c3ccc(F)cc3)CCC2)cc1C(F)(F)F` [Compound 240, 3-[4-[[2-(4-fluorophenyl)cyclopenten-1-yl]methoxy]-2-(trifluoromethyl)phenyl]Propanoic Acid]: the EC50 at Human GPR120 short form was 388 nM; on human GPR40 it was 187 nM.
On the same counts, the results for `Cc1cc(OCC2=C(c3ccc(Cl)cc3F)CCC2)c(F)cc1CCC(=O)O` [Compound 281, 3-[4-[[2-(4-chloro-2-fluoro-phenyl)cyclopenten-1-yl]methoxy]-5-fluoro-2-methyl-phenyl]Propanoic Acid] are 314 nM and 474 nM.
In the same order, the values of `Cc1ccc(C2=C(COc3ccc(CCC(=O)O)c(C(F)(F)F)c3)CCC2)c(-c2ccccc2)c1` [Compound 291, 3-[4-[[2-(4-methyl-2-phenyl-phenyl)cyclopenten-1-yl]methoxy]-2-(trifluoromethyl)phenyl]Propanoic Acid] are over 5000 nM and 1420 nM.
On the same counts, the results for `Cc1cc(OCC2=C(c3ccc(Cl)cc3)CC(F)(F)C2)c(F)cc1CCC(=O)O` [Compound 375] are 88 nM and 962 nM.
`Cc1cc(OCC2=C(Cc3ccc(Cl)cc3)CCC2)c(F)cc1CCC(=O)O` [Compound 360, 3-[4-[[2-[(4-chlorophenyl)methyl]cyclopenten-1-yl]methoxy]-5-fluoro-2-methyl-phenyl]Propanoic Acid]: the results for the EC50 on Human GPR120 short form and at human GPR40 were over 5000 nM and 972 nM, respectively.
In the same order, the values of `O=C(O)CCc1ccc(OCC2=C(C3CCCC3)CCCCC2)cc1` [Compound 614, 3-[4-[(2-cyclopentylcyclohepten-1-yl)methoxy]phenyl]Propanoic Acid] are 376 nM and 560 nM.
`Cc1cccc(CC2=C(COc3ccc(CCC(=O)O)c(C(F)(F)F)c3)CCC2)c1` [Compound 405, 3-[4-[[2-(m-tolylmethyl)cyclopenten-1-yl]methoxy]-2-(trifluoromethyl)phenyl]Propanoic Acid]: the EC50 came to 1820 nM at Human GPR120 short form and 205 nM at human GPR40.
Turning to `Cc1ccc(F)c(C2=C(COc3ccc(CCC(=O)O)c(C(F)(F)F)c3)CCC2)c1` [Compound 341, 3-[4-[[2-(2-fluoro-5-methyl-phenyl)cyclopenten-1-yl]methoxy]-2-(trifluoromethyl)phenyl]Propanoic Acid], the values for the EC50 at Human GPR120 short form and on human GPR40 were 447 nM and 281 nM, respectively.
Turning to `Cc1cc(OCC2=C(C3CCCC3)CCC2)ccc1CCC(=O)O` [Compound 422, 3-[4-[(2-cyclopentylcyclopenten-1-yl)methoxy]-2-methyl-phenyl]Propanoic Acid], the results for the EC50 at Human GPR120 short form and on human GPR40 were 177 nM and 48 nM, respectively.
For the molecule `O=C(O)CCc1cc(F)c(OCC2=C(C3CCCC3)CCC2)c(F)c1` [Compound 436], the EC50 on Human GPR120 short form was 159 nM; on human GPR40, over 10000 nM.
Turning to `O=C(O)CCc1ccc(OCC2=C(c3ccc(Cl)cc3)CCC2)cc1` [Compound 107], the EC50 at Human GPR120 short form and on human GPR40 was over 5000 nM each time.
Turning to `O=C(O)CCc1cc(F)c(OCC2=C(C3CCC(F)(F)CC3)CCC2)c(F)c1` [Compound 419, 3-[4-[[2-(4,4-difluorocyclohexyl)cyclopenten-1-yl]methoxy]-3,5-difluoro-phenyl]Propanoic Acid], the figures for the EC50 on Human GPR120 short form and at human GPR40 were 3170 nM and over 10000 nM, respectively.
As for `O=C(O)CCc1ccc(OCC2=C(C3CCCCC3)CCC2)cc1C(F)(F)F` [Compound 386, 3-[4-[(2-cyclohexylcyclopenten-1-yl)methoxy]-2-(trifluoromethyl)phenyl]Propanoic Acid], the EC50 on Human GPR120 short form stood at 1700 nM; on human GPR40, 92 nM.
In the same order, the values of `O=C(O)CCc1ccc(OCC2=C(C3CCCC3)CCCCC2)cc1F` [Compound 613, 3-[4-[(2-cyclopentylcyclohepten-1-yl)methoxy]-2-fluoro-phenyl]Propanoic Acid] are 436 nM and 225 nM.
With `O=C(O)CCc1ccc(OCC2=C(C3=CCCCC3)CCC2)cc1C(F)(F)F` [Compound 354, 3-[4-[[2-(cyclohexen-1-yl)cyclopenten-1-yl]methoxy]-2-(trifluoromethyl)phenyl]Propanoic Acid], the EC50 at Human GPR120 short form worked out at 1770 nM; on human GPR40, 825 nM.
As to `Cc1cc(CCC(=O)O)ccc1OCC1=C(C2=CCOCC2)CCC1` [Compound 238, 3-[4-[[2-(3,6-dihydro-2H-pyran-4-yl)cyclopenten-1-yl]methoxy]-3-methyl-phenyl]Propanoic Acid], the figures for the EC50 at Human GPR120 short form and at human GPR40 were 435 nM and over 5000 nM, respectively.
In the same order, the values of `O=C(O)CCc1ccc(OCC2=C(C3CC4CCC3C4)CCCC2)cc1C(F)(F)F` (centres unmarked) [Compound 592, 3-[4-[(2-norbornan-2-ylcyclohexen-1-yl)methoxy]-2-(trifluoromethyl)phenyl]Propanoic Acid] are over 5000 nM and 1550 nM.
On the same counts, the results for `O=C(O)CCc1ccc(OCC2=C(Cc3ccccc3)CCCC2)cc1Cl` [Compound 582, 3-[4-[(2-benzylcyclohexen-1-yl)methoxy]-2-chloro-phenyl]Propanoic Acid] are 1210 nM and 77 nM.
On the same counts, the results for `Cc1cc(CCC(=O)O)c(C(F)(F)F)cc1OCC1=C(c2ccc(Cl)cc2)CCC1` [Compound 98, 3-[4-[[2-(4-chlorophenyl)cyclopenten-1-yl]methoxy]-5-methyl-2-(trifluoromethyl)phenyl]Propanoic Acid] are 2030 nM and over 5000 nM.
In the case of `[2H]C([2H])([2H])c1ccc(C2=C(COc3cc(C)c(CCC(=O)O)cc3F)CCC2)cc1` [Compound 303-D, 3-[5-fluoro-2-methyl-4-[[2-[4-(trideuteriomethyl)phenyl]cyclopenten-1-yl]methoxy]phenyl]Propanoic Acid], the 50% effective concentration (EC50) on Human GPR120 short form amounted to 124 nM; on human GPR40 it was 2370 nM.
For `Cc1cc(OCC2=C(c3ccccc3C)CCC2)c(F)cc1CCC(=O)O` [Compound 262, 3-[5-fluoro-2-methyl-4-[[2-(o-tolyl)cyclopenten-1-yl]methoxy]phenyl]Propanoic Acid], the EC50 at Human GPR120 short form is over 5000 nM; at human GPR40 it was 1290 nM.
As for `CC1CCC(c2ccc(Cl)cc2)=C1COc1ccc(CCC(=O)O)cc1` (centres unmarked) [Compound 332, 3-[4-[[2-(4-chlorophenyl)-5-methyl-cyclopenten-1-yl]methoxy]phenyl]Propanoic Acid], the EC50 was found to be 191 nM on Human GPR120 short form and 1300 nM at human GPR40.
In the same order, the values of `O=C(O)CCc1ccc(OCC2=C(Cc3ccccc3)CCCC2)cc1C(F)(F)F` [Compound 584, 3-[4-[(2-benzylcyclohexen-1-yl)methoxy]-2-(trifluoromethyl)phenyl]Propanoic Acid] are 756 nM and 91 nM.
In the same order, the values of `Cc1cc(CCC(=O)O)ccc1OCC1=C(c2ccco2)CC(F)(F)C1` [Compound 232, 3-[4-[[4,4-difluoro-2-(2-furyl)cyclopenten-1-yl]methoxy]-3-methyl-phenyl]Propanoic Acid] are over 5000 nM and over 5000 nM.
Take `CC(C)CC1=C(COc2ccc(CCC(=O)O)c(Cl)c2)CCCC1` [Compound 580, 3-[2-chloro-4-[(2-isobutylcyclohexen-1-yl)methoxy]phenyl]Propanoic Acid]: the half-maximal effective concentration (EC50) at Human GPR120 short form is 1330 nM; on human GPR40, 202 nM.
In the same order, the values of `Cc1cc(OCC2=C(c3ccc(OC(F)(F)F)cc3)CCC2)c(F)cc1CCC(=O)O` [Compound 325, 3-[5-fluoro-2-methyl-4-[[2-[4-(trifluoromethoxy)phenyl]cyclopenten-1-yl]methoxy]phenyl]Propanoic Acid] are over 5000 nM and 2770 nM.
On the same counts, the results for `Cc1cc(Cl)ccc1C1=C(COc2ccc(CCC(=O)O)c(C(F)(F)F)c2)CCC1` [Compound 243, 3-[4-[[2-(4-chloro-2-methyl-phenyl)cyclopenten-1-yl]methoxy]-2-(trifluoromethyl)phenyl]Propanoic Acid] are over 5000 nM and 90 nM.

The values above are taken from patent US11230526B1, “Cylcoalkenyl derivatives useful as agonists of the GPR120 and/or GPR40 receptors” (Janssen Pharmaceutica NV, priority 2018, dated 2022).
